Several values for one entry are separate records, joined by “and”; a condition that tells them apart may be missing. Equal entries are not always repeated.
Experiments:
[1] = Plasma protein binding, rat; assay type: in vitro ADME; details: tested at 10 μg/ml
Protocol: Plasma protein binding differed across species; it was greatest in dog (95%), intermediate in human (29%), and lowest in rat (5%) when tested at 10 μg/ml.

[2] = Prototype oral formulation preparation and physico-chemical characterization (Example 2); assay type: physicochemical; details: powder in bottle compositions
Protocol: Suitable formulation methodologies such as direct compression, dry compaction, and/or wet granulation processes were evaluated.
Powder in bottle (PIB) is one of the most convenient dosage form used in early stage clinical development because of its ease of use. In comparison with capsules, PIB can carry large dose and fill weights. […] The reason for evaluating each composition is also described. […] TABLE 2.14 describes the corresponding properties of the evaluated formulations.
TABLE 2.16 describes the corresponding properties of the evaluated formulations.
Chewable tablets are formulated for use in the mouth. They are usually uncoated, and are formulated to provide a release and absorption of the active ingredient(s) in the mouth/buccal cavity or from stomach. […] TABLE 2.18 describes the corresponding properties of the evaluated formulations.
Various compositions and processes (Direct compression & Wet granulation) were evaluated to formulate conventional tablets with 1000, 750 and/or 500 mg drug load. […]

CYP1A2 = target: T1, CYP1A2 (Homo sapiens, UniProt P05177); test: CYP inhibition; assay type: in vitro ADME
T1 sequence (P05177 1-516): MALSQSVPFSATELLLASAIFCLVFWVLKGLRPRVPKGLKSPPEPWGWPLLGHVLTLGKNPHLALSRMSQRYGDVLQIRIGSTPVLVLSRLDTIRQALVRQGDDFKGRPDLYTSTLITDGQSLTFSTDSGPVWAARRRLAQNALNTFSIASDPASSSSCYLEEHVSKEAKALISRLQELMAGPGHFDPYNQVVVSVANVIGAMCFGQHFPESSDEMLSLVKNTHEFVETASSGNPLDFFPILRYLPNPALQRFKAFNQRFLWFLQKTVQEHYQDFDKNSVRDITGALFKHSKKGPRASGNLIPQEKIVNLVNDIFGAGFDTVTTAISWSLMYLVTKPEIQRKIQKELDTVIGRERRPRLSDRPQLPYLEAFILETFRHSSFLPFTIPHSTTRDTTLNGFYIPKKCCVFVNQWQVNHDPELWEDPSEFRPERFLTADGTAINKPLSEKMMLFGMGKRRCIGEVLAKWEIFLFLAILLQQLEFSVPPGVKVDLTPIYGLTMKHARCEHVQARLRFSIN

[3] = Distribution coefficient measurement; assay type: physicochemical; details: for Dow / Log(Dow): listed as 3,4,3-LI(1,2-HOPO)
CYP2B6 = target: T2, CYP2B6 (Homo sapiens, UniProt P20813); test: CYP inhibition; assay type: in vitro ADME
T2 sequence (P20813 1-491): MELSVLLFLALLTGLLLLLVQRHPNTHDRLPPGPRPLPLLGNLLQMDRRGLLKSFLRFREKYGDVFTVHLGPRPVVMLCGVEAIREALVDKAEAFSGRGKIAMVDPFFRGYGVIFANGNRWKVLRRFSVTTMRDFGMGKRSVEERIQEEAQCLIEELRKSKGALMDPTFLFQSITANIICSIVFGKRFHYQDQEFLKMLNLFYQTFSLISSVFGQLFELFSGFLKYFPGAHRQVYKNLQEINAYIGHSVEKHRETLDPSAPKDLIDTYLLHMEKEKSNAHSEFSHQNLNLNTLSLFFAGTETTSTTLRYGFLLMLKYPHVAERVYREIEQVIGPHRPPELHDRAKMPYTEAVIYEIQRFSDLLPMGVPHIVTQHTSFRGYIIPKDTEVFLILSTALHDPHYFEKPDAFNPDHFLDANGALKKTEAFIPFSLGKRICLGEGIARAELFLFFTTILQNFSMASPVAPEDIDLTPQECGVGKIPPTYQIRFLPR

[4] = Stability in gastric fluid; assay type: in vitro ADME
[5] = Buffering Agent 1: 7.5 E−02 M HCl, pH 1.18, samples A11-A13
[6] = Buffering Agent 1: 7.5 E−02 M HCl, pH 1.20, samples B11-B13
[7] = Buffering Agent 2: 7.5 E−03 M HCl, pH 2.15, samples A11-A13
[8] = Buffering Agent 2: 7.5 E−03 M HCl, pH 2.16, samples B11-B13
[9] = Buffering Agent 3: 7.5 E−04 M HCl, pH 3.21, samples A31-A33
[10] = Buffering Agent 4: 1 E−02 M Acetic Acid, pH 4.19, samples A41-A43
[11] = Buffering Agent 5: 1 E−02 M Acetic Acid, pH 5.13, samples A51-A53
[12] = Buffering Agent 5: 1 E−02 M Acetic Acid, pH 5.20, samples B51-B53
[13] = Buffering Agent 6: 1 E−02 M MES, pH 6.30, samples A61-A63
[14] = Buffering Agent 7: 1 E−02 M HEPES, pH 6.75, samples A71-A73
[15] = Buffering Agent 8: 1 E−02 M HEPES, pH 7.42, samples A81-A83
[16] = Buffering Agent 9: 1 E−02 M HEPES, pH 8.00, samples A91-A93

O=C(NCCCN(CCCCN(CCCNC(=O)c1cccc(=O)n1O)C(=O)c1cccc(=O)n1O)C(=O)c1cccc(=O)n1O)c1cccc(=O)n1O [3,4,3-L1(1,2-HOPO)]
Plasma protein binding [1]: 5%
behavior when reconstituted in water [2]: formed a sticky mass
inhibition of CYP1A2 activity (CYP1A2): did not inhibit
Dow [3, 5]: 0.122 and 0.115 and 0.112
Log(Dow) [3, 5]: −0.915 and −0.938 and −0.952
Log(Dow), unlabelled summary row (mean of samples) ([3]; Buffering Agent 1: 7.5 E−02 M HCl, pH 1.18, series A): −0.935
Dow [3, 6]: 0.318 and 0.327 and 0.285
Log(Dow) [3, 6]: −0.497 and −0.485 and −0.545
Log(Dow), unlabelled summary row (mean of samples) ([3]; Buffering Agent 1: 7.5 E−02 M HCl, pH 1.20, series B): −0.509
Dow [3, 7]: 0.093 and 0.105 and 0.110
Log(Dow) [3, 7]: −1.031 and −0.980 and −0.958
Log(Dow), unlabelled summary row (mean of samples) ([3]; Buffering Agent 2: 7.5 E−03 M HCl, pH 2.15, series A): −0.990
Dow [3, 8]: 0.503 and 0.491 and 0.469
Log(Dow) [3, 8]: −0.299 and −0.309 and −0.329
Log(Dow), unlabelled summary row (mean of samples) ([3]; Buffering Agent 2: 7.5 E−03 M HCl, pH 2.16, series B): −0.312
Log(Dow), unlabelled summary row (mean of samples) ([3]; Buffering Agent 3: 7.5 E−04 M HCl, pH 3.13, series B): −1.499
Dow [3, 9]: 0.180 and 0.170 and 0.184
Log(Dow) [3, 9]: −0.744 and −0.769 and −0.735
Log(Dow), unlabelled summary row (mean of samples) ([3]; Buffering Agent 3: 7.5 E−04 M HCl, pH 3.21, series A): −0.750
Log(Dow), unlabelled summary row (mean of samples) ([3]; Buffering Agent 4: 1 E−02 M Acetic Acid, pH 4.00, series B): −1.566
Dow [3, 10]: 0.076 and 0.061 and 0.068
Log(Dow) [3, 10]: −1.119 and −1.218 and −1.166
Log(Dow), unlabelled summary row (mean of samples) ([3]; Buffering Agent 4: 1 E−02 M Acetic Acid, pH 4.19, series A): −1.168
Dow [3, 11]: 0.044 and 0.027 and 0.050
Log(Dow) [3, 11]: −1.360 and −1.564 and −1.299
Log(Dow), unlabelled summary row (mean of samples) ([3]; Buffering Agent 5: 1 E−02 M Acetic Acid, pH 5.13, series A): −1.408
Dow [3, 12]: 0.056 and 0.082 and 0.103
Log(Dow) [3, 12]: −1.251 and −1.086 and −0.989
Log(Dow), unlabelled summary row (mean of samples) ([3]; Buffering Agent 5: 1 E−02 M Acetic Acid, pH 5.20, series B): −1.109
Log(Dow) ([3]; Buffering Agent 6: 1 E−02 M MES, pH 6.15, samples B61-B63): −1.374 and −1.645
Log(Dow), unlabelled summary row (mean of samples) ([3]; Buffering Agent 6: 1 E−02 M MES, pH 6.15, series B (B61 prints #NUM!)): −1.510
Dow [3, 13]: 0.064 and 0.077 and 0.082
Log(Dow) [3, 13]: −1.191 and −1.113 and −1.086
Log(Dow), unlabelled summary row (mean of samples) ([3]; Buffering Agent 6: 1 E−02 M MES, pH 6.30, series A): −1.130
Dow [3, 14]: 0.150 and 0.120 and 0.105
Log(Dow) [3, 14]: −0.824 and −0.921 and −0.977
Log(Dow), unlabelled summary row (mean of samples) ([3]; Buffering Agent 7: 1 E−02 M HEPES, pH 6.75, series A): −0.908
Log(Dow), unlabelled summary row (mean of samples) ([3]; Buffering Agent 7: 1 E−02 M HEPES, pH 6.83, series B): −1.680
Dow [3, 15]: 0.130 and 0.132 and 0.107
Log(Dow) [3, 15]: −0.885 and −0.879 and −0.970
Log(Dow), unlabelled summary row (mean of samples) ([3]; Buffering Agent 8: 1 E−02 M HEPES, pH 7.42, series A): −0.912
Log(Dow), unlabelled summary row (mean of samples) ([3]; Buffering Agent 8: 1 E−02 M HEPES, pH 7.46, series B): −1.173
Dow [3, 16]: 0.110 and 0.074 and 0.132
Log(Dow) [3, 16]: −0.957 and −1.128 and −0.879
Log(Dow), unlabelled summary row (mean of samples) ([3]; Buffering Agent 9: 1 E−02 M HEPES, pH 8.00, series A): −0.988
Log(Dow), unlabelled summary row (mean of samples) ([3]; Buffering Agent 9: 1 E−02 M HEPES, pH 8.00, series B): −1.920
inhibition of CYP2B6 activity (CYP2B6): did not inhibit
stability in gastric fluid [4]: degraded slightly
